One assay concerns giant foxtail (SETFA). Nature of the assay: Test J Compounds 2 and 6 alone and in combination with other herbicides, foliage spray. Format: in vivo, Setaria faberi. The arrangement: key: 0 = no effect, 100 = complete control. The settings on record: applied alone. The text has this: (§1) Seeds of test plants consisting of barnyardgrass (ECHCG; Echinochloa crus-galli (L.) Beauv.), blackgrass (ALOMY; Alopecurus myosuroides Huds.), Surinam grass (BRADC; Urochloa decumbens (Staph) R. D. Webster, previously named Brachiaria decumbens Stapf), cocklebur (XANST, Xanthium strumarium L.), corn (ZEAMD, Zea mays L. cv. ‘Pioneer 33G26’), large crabgrass (DIGSA, Digitaria sanguinalis (L.) Scop.), giant foxtail (SETFA, Setaria faberi Herrm.), lambsquarters (CHEAL, Chenopodium album L.), morningglory (IPOCO, Ipomoea coccinea L.), pigweed (AMARE, Amaranthus retroflexus L.), velvetleaf (ABUTH, Abutilon theophrasti Medik.) wheat (TRZAS, Triticum aestivum L. cv. ‘Recital’) and wild oat (AVEFA, Avena fatua L.) were planted in Redi-Earth® planting medium (Scotts Company, 14111 Scottslawn Road, Marysville, Ohio 43041) comprising spaghnum peat moss and vermiculite. Seeds of small-seeded species were planted about 1 cm deep; larger seeds were planted about 2.5 cm deep. Plants were grown in a greenhouse using supplemental lighting to maintain a photoperiod of about 14 hours; daytime and nighttime temperatures were about 24-30° C. and 22-25° C., respectively. Balanced fertilizer was applied through the watering system. […] Also listed in Table J are the expected effects for the mixtures calculated using Colby's Equation.

For the next assay, the system named is barley cv. Boone. Briefly: Test I safening of Compound 6 by Harmony Extra Herbicide, pre-/postemergence. Format: in vivo, Hordeum vulgare. The protocol:
This test evaluated the safening of Compound 6 on barley (Hordeum vulgare L.) cv. ‘Boone’ and wheat (Triticum aestivum L.) cv. ‘Recital’ by Harmony® Extra Herbicide, which comprises 50 wt % thifensulfuron-methyl and 25 wt % tribenuron-methyl. Barley and wheat seeds were planted in pots containing a pasteurized blend of Matapeake soil and sand. For postemergence testing the plants were grown 10 days so the barley seedlings were at the 2-leaf stage and the wheat seedlings were at the 2-3-leaf stage at time of treatment. Preemergence treatments were applied the day after the seeds were planted. Treatments were applied by spraying Compound 6 and/or […] in a non-phytotoxic solvent mixture, using flat fan nozzle and a spray volume of 280 L/ha. The treatments were triply replicated and the results subsequently averaged. The pots were placed on a greenhouse bench using a complete randomized block design except for the first replicate, which was unrandomized. The plants were grown in the greenhouse and watered as needed with a dilute nutrient solution containing 200 ppm of N. Illumination was daylight supplemented by artificial sources to maintain a photoperiod of 14 hours. The temperature was maintained at 23±2° C. during the day and 17±2° C. at night. The effects of the treatments were rated 25 days after preemergence treatment and 15 days after postemergence treatment. The plant response was visually rated in comparison to untreated controls using a scale of 0 to 100, with 0 representing no effect and 100 representing complete plant death.
Colby's Equation was used to calculate the expected additive herbicidal effect of the mixtures of Compound 6 with Harmony® Extra (i.e. a 2:1 mixture by weight of thifensulfuron-methyl and tribenuron-methyl). Colby's Equation (Colby, S. R. “Calculating Synergistic and Antagonistic Responses of Herbicide Combinations,” Weeds, 15(1), pp 20-22 (1967)) calculates the expected additive effect of herbicidal mixtures, and for two active ingredients is of the form: Pa+b=Pa+Pb−(PaPb/100) wherein • Pa+b is the percentage effect of the mixture expected from additive contribution of the individual components, • Pa is the observed percentage effect of the first active ingredient at the same use rate as in the mixture, and • Pb is the observed percentage effect of the second active ingredient at the same use rate as in the mixture.
The results and additive effects expected from Colby's Equation for the preemergence test are listed in Table I1, and the results and additive effects expected from Colby's Equation for the postemergence test are listed in Table I2.

The next assay relates to lambsquarters (CHEAL). Nature of the assay: Test J Compounds 2 and 6 alone and in combination with other herbicides, foliage spray. Format: in vivo, Chenopodium album. The arrangement: key: % herbicidal effect (observed). Particulars: applied alone.
Source text: Colby's Equation was used to calculate the expected additive herbicidal effect of the mixtures of Compound 6 with Harmony® Extra (i.e. a 2:1 mixture by weight of thifensulfuron-methyl and tribenuron-methyl). […]
as §1, with “vermiculite.” for “vermiculite. Seeds of small-seeded species were planted about 1 cm deep; larger seeds were planted about 2.5 cm deep. Plants were grown in a greenhouse using supplemental lighting to maintain a photoperiod of about 14 hours; daytime and nighttime temperatures were about 24-30° C. and 22-25° C., respectively. Balanced fertilizer was applied through the watering system.”

The test system of the next assay is morningglory (IPOCO). The description is as above. Type of assay: in vivo, Ipomoea coccinea. Further details: key: 0 = no effect, 100 = complete control. Particulars: applied alone.
Source text: as §1

The next assay has as its system downy bromegrass. Nature of the assay: Test A pre-/postemergence herbicide test. Format: in vivo, Bromus tectorum. The settings on record: Preemergence, visual rating, 0 to 100 scale (0 no effect, 100 complete control). From the text: Seeds of plant species selected from barnyardgrass (Echinochloa crus-galli (L.) Beauv.), downy bromegrass (Bromus tectorum L.), large crabgrass (Digitaria sanguinalis (L.) Scop.), giant foxtail (Setaria faberi Herrm.), morningglory (Ipomoea spp.), redroot pigweed (Amaranthus retroflexus L.) and velvetleaf (Abutilon theophrasti Medik.) were planted into a sandy loam soil and treated preemergence with a directed soil spray using test chemicals formulated in a non-phytotoxic solvent mixture which included a surfactant. At the same time plants selected from these species were also treated postemergence by spraying to runoff with test chemicals formulated.
Plants ranged in height from 2 to 10 cm and were in the one- to two-leaf stage for the postemergence treatment. Treated plants and untreated controls were maintained in a greenhouse for approximately ten days, after which time all treated plants were compared to untreated controls and visually evaluated for injury. Plant response ratings, summarized in Table A, are based on a 0 to 100 scale where 0 is no effect and 100 is complete control. A dash (-) response means no test results.

Turning to `CCn1nc(C(C)(C)C)cc1C(=O)Nc1cc(C(=O)N(C)C)ccc1F` [Compound 6, N-[5-[(dimethylamino)carbonyl]-2-fluorophenyl]-3-(1,1-dimethylethyl)-1-ethyl-1H-pyrazole-5-carboxamide], the “SETFA Obsd.” value is reported as 15 with giant foxtail (SETFA) (62 g a.i./ha) and 33 in the assay on giant foxtail (SETFA) (125 g a.i./ha). Moreover, the “Barley Observed effect” value came out at 47 with barley cv. Boone (postemergence, Compound 6 16, thifensulfuron-methyl 0, tribenuron-methyl 0 g a.i./ha); 73 in the assay with barley cv. Boone (postemergence, Compound 6 31, thifensulfuron-methyl 0, tribenuron-methyl 0 g a.i./ha); 35 in the assay on barley cv. Boone (preemergence, Compound 6 16, thifensulfuron-methyl 0, tribenuron-methyl 0 g a.i./ha); 68 in the assay with barley cv. Boone (preemergence, Compound 6 31, thifensulfuron-methyl 0, tribenuron-methyl 0 g a.i./ha). The “CHEAL Obsd.” value in the assay on lambsquarters (CHEAL) (62 g a.i./ha) is on record as 43; in the assay with lambsquarters (CHEAL) (125 g a.i./ha), 68. For the same compound, the “IPOCO Obsd.” value in the assay with morningglory (IPOCO) (62 g a.i./ha) is given as 22; in the assay with morningglory (IPOCO) (125 g a.i./ha), 28.

As for `CC(=NO)c1cccc(NC(=O)c2cc(C(C)(C)C)nn2C)c1` [Compound 102], the “Bromegrass, Downy plant response rating” value in the assay with downy bromegrass (500 g ai/ha) and with downy bromegrass (2000 g ai/ha) was 60 in each case.

(Values after patent publication US20060069132A1, “Azolecarboxamide herbicides” (priority 2004, published 2006).)
